Measurements from patent US6787566B2, “Breakers of advanced glycation endproducts” (City of Hope, priority 1999, dated 2004).

Legend:
[1] = target: T1, cross-linked collagen-AGE-BSA (Rattus norvegicus, UniProt P02454+P02466); test: AGE-BSA-collagen ELISA: cleavage of glycated BSA cross-linked to collagen; assay type: biochemical; conditions: for AGE-breaking activity (cleavage of cross-linked collagen-AGE-BSA), in words: 0.1-10 mM final concentration, FIGS. 1A and 1C; for Concentration dependence of AGE-BSA-collagen crosslink breaking, in words: FIGS. 1A-C
T1 construct: purchased Biocoat (Collaborative Research, Bedford, Mass.) for the collagen-coated plates; Sigma Chemical co. for bovine serum albumin
Procedure: In vitro evaluation of the ability of the AGE-breaker compounds to cleave and break cross-linking of glycated BSA (AGE-BSA) (prepared as described (Rahbar et al., 1999)) to the rat-tail-tendon-collagen was by a special ELISA (Vasan et al., 1996). The rat-tail-tendon-collagen coated plates were first blocked first with 300 μL of Superblock blocking buffer (Pierce Chemicals, Rockford, Ill.) for one hour. The blocking solution was removed from the wells by washing the plates twice with PBS-0.05% Tween 20 (PBS-T) using a Dynatech ELISA-plate washer. Cross-linking of various concentrations of AGE-BSA (0, 0.01, 0.05, 0.1, 0.25, 0.50, and 1.0 μg per well) to rat-tail-collagen coated plates was performed without the testing compound, and the plates were incubated for 5 hours at 37° C. After washing the wells three times with PBS-T to remove the unattached AGE-BSA, test concentrations of the compound (50 μL/well) dissolved in PBS were added to wells in triplicate and incubation continued at 37° C. overnight. After washing with PBS-T, the amount of BSA remaining attached to the tail collagen plate was then quantified by addition of rabbit anti-BSA polyclonal antibodies (50 μL/well) for 1 hour at 37° C. The wells were then washed three times with PBS-T and developed with the chromogenic substrate ABTS (100 μL/well). Absorbance was measured at 410 nm in microplate reader (BioRad, Hercules, Calif.).
The percentage breaking activity is calculated by the following formula: 100×[(A410, PBS control)−(A410, AGE-breaker compound)]/[A410, PBS control].

[2] = system: IgG-AGE cross-linked to the rat RBC surface; test: Cleavage of IgG-AGE cross-linked to RBC surface, anti-IgG ELISA; assay type: cell-based; conditions: RBCs of diabetic rats vs diabetic and non-diabetic controls; FIG. 6
Procedure: IgG cross-linked to the RBC surface was determined with an anti-IgG by a modification of the method described by Vasan et al. (1996). Briefly, heparinized blood was drawn from the tail vein in capillary tubes, inverted several times, then centrifuged at 200×g for five minutes at room temperature. RBCs were washed three times with PBS in 0.5 mL microfuge tubes and packed with a final centrifugation at 500×g. Red cells were diluted at 1:10 to 1:100 in Dulbecco's Modified Eagle's Medium that is normal for glucose. Experimental compounds were added at desired concentrations and incubated at 37° C. in a CO2 incubator for 24 hours in sterile conditions. Control incubations contained RBCs and PBS alone. After incubation, RBCs were washed three times in PBS and packed cells diluted 1:200 to 1:500. The RBC suspensions were gently vortexed and 50 μL aliquots added to 450 μL of a polyclonal rabbit anti-rat IgG conjugated to alkaline phosphatase (diluted 1:2500 in PBS). […] The RBCs were pelleted and the supernatant was read at […] in either a conventional spectrometer or an ELISA reader. Blank readings were obtained by incubating tubes without cells.

[3] = target: T2, native and glycated β-amyloid (1-40) peptide fibrils (Homo sapiens, UniProt P05067); test: Thioflavine T fluorescence assay of β-amyloid fibril disaggregation; assay type: biochemical; conditions: ThT assay
T2 construct: β-amyloid (1-40) peptide was from Bachem (Torrance, Calif.); purchased Bachem (Torrance, Calif.)
Procedure: Both dyes have been adapted to in vitro measurements of amyloid fibril formation and quantification. ThT binding to β-amyloids gives rise to a large fluorescence excitation spectral shift that allows selective excitation of the amyloid fibril bound ThT (Tjernberg et al., 1999). In the present study, we have investigated the disaggregation of both native (unmodified) and glycated β-amyloid (1-40) peptide by the AGE-breaker compounds introduced here. Stock solutions of peptide were dissolved in deionized water at a concentration of 1 mg/mL. For AGE crosslinking experiments, they were incubated in 4 mL polypropylene tubes at a concentration of 250 μg/mL (60 μM) and 50 mM glucose in 50 mM sodium phosphate buffer, pH 7.9, at 50° C. in the dark for 5 days. Sodium azide (0.01% w/v) was added to prevent microbiological growth. In long-term experiments, water was added every 12 hours to compensate for solvent evaporation. AGE-β-amyloid was then dialyzed against double-distilled water using Spectra/Por CE dialysis membrane (molecular mass cut off: 1000 Da), and then freeze dried. Two sets of experiments were prepared for each compound. Solutions for the first experiment contained 100 μM of β-amyloid in 50 mM Tris-buffered saline (TBS) pH 7.4, and […] (the drugs were dissolved in DMSO and the solutions were prepared for dilution from this DMSO stock). The second set contained 100 μM of β-amyloid in TBS and 100 μM of one compound. The reactions were incubated at 37° C. for 24 hours without stirring (stagnant assay). Control experiments were prepared accordingly except that no AGE-breaker compounds were added to the tubes. The same protocol was used for both native and glycated β-amyloid peptides. The incubated samples are vortexed and 40 μL aliquots are withdrawn and mixed with 960 μL of 10 μM ThT in 10 mM sodium phosphate-buffer. Fluorescence measurements were taken with excitation of 437 nm and emission at 485 nm. Slit widths are set to 5 nm.

[4] = system: crosslinks formed in skin and tail collagen of diabetic rats; conditions: cited from earlier work
[5] = target: T3, β-amyloid fibrils (Homo sapiens, UniProt P05067); conditions: 20 mM; cited from earlier work
T3 construct: β-AP (amino acids 1-40, from Bachem, Torrance, Calif.)
T3 sequence (P05067 672-711): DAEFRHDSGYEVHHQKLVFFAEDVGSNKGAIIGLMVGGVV

T1 sequence (P02454 152-1207 limits assumed): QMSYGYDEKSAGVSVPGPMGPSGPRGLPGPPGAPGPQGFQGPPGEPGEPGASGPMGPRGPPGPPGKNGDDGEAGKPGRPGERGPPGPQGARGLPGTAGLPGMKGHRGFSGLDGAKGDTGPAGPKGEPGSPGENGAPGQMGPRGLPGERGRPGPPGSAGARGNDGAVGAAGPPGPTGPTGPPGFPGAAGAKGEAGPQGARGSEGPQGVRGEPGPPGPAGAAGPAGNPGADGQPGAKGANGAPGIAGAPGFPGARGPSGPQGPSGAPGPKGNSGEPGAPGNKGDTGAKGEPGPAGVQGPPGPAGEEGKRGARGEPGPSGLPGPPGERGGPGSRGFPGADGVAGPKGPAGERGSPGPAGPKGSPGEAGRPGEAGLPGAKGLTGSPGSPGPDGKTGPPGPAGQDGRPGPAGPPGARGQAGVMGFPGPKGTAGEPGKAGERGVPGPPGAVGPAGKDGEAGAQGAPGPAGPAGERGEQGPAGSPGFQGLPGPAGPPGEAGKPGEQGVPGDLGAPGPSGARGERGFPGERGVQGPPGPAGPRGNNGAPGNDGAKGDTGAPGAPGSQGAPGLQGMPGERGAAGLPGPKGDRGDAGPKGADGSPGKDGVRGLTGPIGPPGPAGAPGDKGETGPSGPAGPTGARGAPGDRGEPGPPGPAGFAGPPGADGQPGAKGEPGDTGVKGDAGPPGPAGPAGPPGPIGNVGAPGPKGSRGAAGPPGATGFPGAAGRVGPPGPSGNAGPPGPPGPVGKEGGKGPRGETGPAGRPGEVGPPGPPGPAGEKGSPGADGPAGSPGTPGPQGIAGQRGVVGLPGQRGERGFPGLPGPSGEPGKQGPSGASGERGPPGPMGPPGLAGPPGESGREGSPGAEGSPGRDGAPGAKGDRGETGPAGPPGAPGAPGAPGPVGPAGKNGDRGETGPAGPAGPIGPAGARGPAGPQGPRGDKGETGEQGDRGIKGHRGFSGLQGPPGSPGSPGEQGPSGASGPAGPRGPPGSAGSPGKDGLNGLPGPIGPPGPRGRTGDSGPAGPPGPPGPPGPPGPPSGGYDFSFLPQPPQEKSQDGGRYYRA
T1 sequence (P02466 86-1125 limits assumed): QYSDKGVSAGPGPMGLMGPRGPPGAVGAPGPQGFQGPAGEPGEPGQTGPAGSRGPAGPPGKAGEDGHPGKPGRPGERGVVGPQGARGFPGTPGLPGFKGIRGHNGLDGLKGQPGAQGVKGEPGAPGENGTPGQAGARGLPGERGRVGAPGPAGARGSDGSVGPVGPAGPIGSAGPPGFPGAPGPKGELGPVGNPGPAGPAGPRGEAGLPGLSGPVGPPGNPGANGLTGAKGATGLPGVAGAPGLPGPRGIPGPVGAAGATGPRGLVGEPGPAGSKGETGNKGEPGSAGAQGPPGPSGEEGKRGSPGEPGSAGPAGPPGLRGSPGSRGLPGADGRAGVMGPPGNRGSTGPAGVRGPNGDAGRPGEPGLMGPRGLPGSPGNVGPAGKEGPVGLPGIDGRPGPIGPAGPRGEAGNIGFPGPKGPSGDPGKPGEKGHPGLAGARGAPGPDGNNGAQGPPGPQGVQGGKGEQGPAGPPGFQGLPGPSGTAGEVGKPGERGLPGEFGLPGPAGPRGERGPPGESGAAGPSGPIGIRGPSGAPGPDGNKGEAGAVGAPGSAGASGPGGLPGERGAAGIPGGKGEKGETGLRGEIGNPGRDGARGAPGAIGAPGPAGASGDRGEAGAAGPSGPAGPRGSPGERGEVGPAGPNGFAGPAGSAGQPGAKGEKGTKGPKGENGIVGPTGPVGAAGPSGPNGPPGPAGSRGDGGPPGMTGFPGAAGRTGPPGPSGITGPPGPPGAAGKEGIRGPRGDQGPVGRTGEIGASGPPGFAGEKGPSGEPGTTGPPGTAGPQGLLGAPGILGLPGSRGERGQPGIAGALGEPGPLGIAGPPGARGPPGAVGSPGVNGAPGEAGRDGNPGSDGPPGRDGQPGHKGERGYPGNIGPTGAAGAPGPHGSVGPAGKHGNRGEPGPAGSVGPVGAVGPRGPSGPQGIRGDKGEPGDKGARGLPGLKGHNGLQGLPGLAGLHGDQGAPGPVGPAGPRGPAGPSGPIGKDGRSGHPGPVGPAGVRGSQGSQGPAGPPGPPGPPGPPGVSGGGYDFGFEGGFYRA
T2 sequence (P05067 672-711): as the sequence (P05067 672-711) above

| Molecule | AGE-breaking activity (cleavage of cross-linked collagen-AGE-BSA), in words [1] | Concentration dependence of AGE-BSA-collagen crosslink breaking, in words [1] | Overall AGE-breaking property, in words ([1]; overall judgement of the patent's tests) | IgG-AGE bound to RBC surface, in words [2] | Disaggregation of fibrillar forms of native and glycated β-amyloid, in words [3] | Cleaving crosslinks formed in skin and tail collagen, in words [4] | Disaggregation of β-amyloid fibrils, in words [5] |
| --- | --- | --- | --- | --- | --- | --- | --- |
| 1,4-benzene-bis[4-methyleneaminophenoxyisobutyric acid] [LR102] | very effective AGE-breakers | more potent at lower concentrations | most effective AGE-breakers | almost the same IgG-AGE content as that of non-diabetic control | clearly confirmed the efficacy |  |  |
| Cc1sc[n+](CC(=O)c2ccccc2)c1C.[Cl-] [ALT711] |  |  |  |  |  | not effective |  |
| O=C(C[n+]1ccsc1)c1ccccc1.[Br-] [PTB, N-phenacylthiazolium bromide] |  |  |  |  |  |  | disaggregates β-amyloid fibrils |
| methylene bis [LR90, methylene bis [4,4′-(2-chlorophenylureidophenoxyisobutyric acid)]] | very effective AGE-breakers | more effective breakers at higher concentrations |  |  | clearly confirmed the efficacy |  |  |
